Source: ChEMBL document CHEMBL3875223, “Activation of lysine-specific demethylase 1 inhibitor peptide by redox-controlled cleavage of a traceless linker” (Bioorg Med Chem, 2017)

Target: Lysine-specific histone demethylase 1A (Homo sapiens, UniProt O60341)
Test: Inhibition of human LSD1 assessed as reduction in H2O2 production using H3K4me2 (1 to 20 residues) peptide as substrate preincubated for 10 mins followed by substrate addition measured after 30 mins in presence of DTT by peroxidase coupled enzyme assay

Ki: 190 µM
SMILES: CC(C)C[C@H](NC(=O)[C@H](Cc1ccccc1)NC(=O)[C@H](CO)NC(=O)[C@H](CCCNC(=N)N)NC(=O)[C@@H]1CCCN1C(=O)CO)C(=O)N[C@H](C(=O)N[C@@H](CCCNC(=N)N)C(=O)N[C@@H](CCCCN)C(=O)N1CCC[C@H]1C(=O)N[C@@H](CCCCNC(=O)CO)C(N)=O)C(C)C
